According to publication PMC7228129, “Evaluation of Developmental Toxicity, Developmental Neurotoxicity, and Tissue Dose in Zebrafish Exposed to GenX and Other PFAS” (Environmental Health Perspectives, 2020):
Values joined by “and” are separate entries in the source; they are usually repeats but may differ in a detail not shown here. Equal entries are not always repeated. “Also recorded” adds a separate entry of the source. Where two headings read alike, the source gives them in different places.

Test: Tissue analysis (internal tissue dose of parent PFAS, bioconcentration factor)
Format: in vivo, Danio rerio
Details: for Parent compound in fish tissue at 6 dpf: Study 1, daily exposure 0–5 dpf; for Bioaccumulation ranking: among chemicals assessed, from BCF values; for BCFdry: 6-d zebrafish assay; for concentration at 6 dpf: zebrafish (Danio rerio), whole larvae (pools of 10, homogenised), other: waterborne exposure in the well medium, 6 dpf larvae, dry weight 44 μg per larva, read-out: Measured tissue dose; for Dil Corrected Reported Conc. (fMole/larvae), measured tissue concentration: zebrafish larvae, replicate samples per experiment/plate
Method: Zebrafish were exposed to 25.1, 44.8, or 80.0μM ADONA, PFOA, PFESA1, or PFHxA, 14.0, 25.1, or 44.8μM PFHxS, or 1.0, 1.8, or 3.1μM PFOS, or 0.4% DMSO. The highest concentration evaluated was the no observed effect concentration (NOEC) determined in Study 1. In Study 2, zebrafish were exposed to 25.1, 44.8, or 80.0μM GenX Free Acid or 0.4% DMSO. According to the previously described microtiter plate inclusion criterion, 15/15 plates were included in the study. Larvae were anesthetized by rapid cooling in chilled 10% HBSS. Groups of 10 anesthetized larvae were pooled to comprise one biological replicate ( n=4 ) in 500μL of 10% HBSS, flash frozen in liquid nitrogen, and stored at −80°C . In the case of ADONA, n=5 .
Tissue samples were prepared by protein precipitation. Flash frozen samples, consisting of pools of ten 6-dpf zebrafish larvae, were homogenized using ∼100mg of 1.0-mm diameter zirconia/silica beads and a Fast-Prep-24™ homogenizer (MP Biomedicals) in 100μL 0.1M formic acid fortified with the surrogate (i.e., PFNA). Protein was precipitated from the homogenate with 400μL of acetonitrile containing internal standards and separated by centrifugation at 14,000 rpm for 15 min at 4°C. Fifty microliters of the extract was diluted with 200μL aqueous 0.4 mM ammonium formate in the LC vial for analysis. Standards and samples were analyzed with Vanquish UPLC and Orbitrap Fusion mass spectrometer (Thermo Electron) operated in negative ESI mode. ESI source conditions were optimized for the [M-H]^− ion of PFAS as follows: spray voltage −3.5 kV , sheath gas 25 au (arbitrary units), aux gas 6 au, sweep gas 0 au, ion transfer tube temperature 300°C, and vaporizer temperature […]. High-resolution accurate mass (HRAM) MS1 scans were collected with the following parameters: detector type orbitrap, orbitrap resolution 30,000 full width at half maximum (FWHM), normal mass range, Use quadrapole isolation=true , scan range 70–700m/z , radio frequency (RF) lens 60%, automatic gain control (AGC) target 4.00×10^5 , max injection time of 50 ms , 1 microscan, data type set to profile, negative polarity, and source fragmentation disabled. Data-dependent orbitrap MSMS (ddMS2-OT) scans were collected for the [M-H]^− ion [ M-H-CO2 for GenX]^– using a target mass list for the eight PFAS and PFNA surrogate for identity confirmation. The apex detection was set to an expected peak width of 2 s at FWHM and desired apex peak window of 30%. The dynamic exclusion parameters were set to exclude after a one-time, 60-s exclusion duration, low and high mass tolerances of 10 ppm , and exclude isotope was set to true. The intensity threshold for collecting an MSMS scan was set to 2.5E+04 . Fragmentation was done by high-energy collisional dissociation (HCD). The ddMS2-OT scans were collected with the following parameters: orbitrap isolation mode, isolation window of 1.6m/z , isolation offset off, stepped HCD collision energy of 30%±10% , scan range of auto mass-to-charge ratio normal, orbitrap resolution of 30,000 FWHM, first mass 75m/z , max injection time of […], AGC target 5.00×10^4 , inject ions from available parallelizable time set to true, max injection time of 54 ms, 1 microscan, and data type set to centroid. UPLC separation was achieved using ACQUITY UPLC BEH C18 Column, 130Å , 1.7μM , 2.1mm×50mm (Waters Corp P/N 186,002,350) at 50°C with gradient elution at a flow rate of 300μL/min using 0.4 mM ammonium formate in acetonitrile and water with a 10-μL injection. Data collection, integration, calibration, and quantitation were performed using Xcalibur software (version 4.1; Thermo Electron). Concentration for each PFAS analyte was determined by internal standard technique using isotopically labeled internal standards and matrix-matched calibration standards. Quantitative analysis was performed using high-resolution MS1-extracted ion chromatograms. […]

[1] = nominal 25.1 μM daily 0–5 dpf, 0.4% DMSO
[2] = nominal 44.8 μM daily 0–5 dpf, 0.4% DMSO
[3] = nominal 80.0 μM daily 0–5 dpf, 0.4% DMSO

SMILES	Parent compound in fish tissue at 6 dpf (0.4% DMSO)	Bioaccumulation ranking	BCFdry (nominal 25.1 μM, 0.4% DMSO)	BCFdry (nominal 44.8 μM, 0.4% DMSO)	BCFdry (nominal 80.0 μM, 0.4% DMSO)	concentration at 6 dpf [1]	concentration at 6 dpf [2]	concentration at 6 dpf [3]	Dil Corrected Reported Conc. (fMole/larvae), measured tissue concentration (exposure Concentration 25.1 µM)	Dil Corrected Reported Conc. (fMole/larvae), measured tissue concentration (exposure Concentration 44.8 µM)	Dil Corrected Reported Conc. (fMole/larvae), measured tissue concentration (exposure Concentration 80 µM)	other results
O=C(O)C(F)(F)C(F)OC(F)(F)C(F)(F)C(F)(F)OC(F)(F)F (stereo not drawn) [ADONA, 4,8-Dioxa-3H-perfluorononanoate]	detectable levels	least bioaccumulative	0.95 L/kg	0.94 L/kg	0.56 L/kg	9490 ± 3100 ng/g	16000 ± 6290 ng/g	14900 ± 3110 ng/g	687.994 fMole/larvae and 814.543 fMole/larvae and 1674.31 fMole/larvae and 986.423 fMole/larvae and 1056.18 fMole/larvae	1721.39 fMole/larvae and 1579.99 fMole/larvae and 1307.54 fMole/larvae and 1119.74 fMole/larvae and 3082.15 fMole/larvae	1324.81 fMole/larvae and 2040.26 fMole/larvae and 1665.47 fMole/larvae and 1967.75 fMole/larvae and 1175.25 fMole/larvae	
O=C(O)C(F)(OC(F)(F)C(F)(F)C(F)(F)F)C(F)(F)F (stereo not drawn) [GenX Free Acid, Perfluoro-2-propoxypropanoic acid]												Parent compound in larval zebrafish tissue (GenX Free Acid diluted in DI water (Study 2)): detectable levels; also recorded: detectable in zebrafish tissue; Parent compound in zebrafish tissue at 6 dpf (GenX Free Acid diluted in DMSO (Study 1)): undetectable; BCFdry (nominal 25.1 μM in DI water (Study 2)): 0.45 L/kg; BCFdry (nominal 44.8 μM in DI water (Study 2)): 0.29 L/kg; BCFdry (nominal 80.0 μM in DI water (Study 2)): 0.49 L/kg; concentration at 6 dpf (nominal 25.1 μM in DI water (Study 2) daily 0–5 dpf): 2480 ± 660 ng/g; concentration at 6 dpf (nominal 44.8 μM in DI water (Study 2) daily 0–5 dpf): 2020 ± 270 ng/g; concentration at 6 dpf (nominal 80.0 μM in DI water (Study 2) daily 0–5 dpf): 5110 ± 1490 ng/g
O=S(=O)(O)C(F)(F)C(F)(F)OC(F)(C(F)(F)F)C(F)(F)OC(F)=C(F)F (stereo not drawn) [PFESA1, Perfluoro-3,6-dioxa-4-methyl-7-octene-1-sulfonic acid]	detectable levels	least bioaccumulative	3.09 L/kg	2.62 L/kg	1.44 L/kg	23700 ± 17500 ng/g	37000 ± 17400 ng/g	43200 ± 4840 ng/g	4.79E+03 fMole/larvae and 1603 fMole/larvae and 2911 fMole/larvae and 78 fMole/larvae	2778 fMole/larvae and 2495 fMole/larvae	3514 fMole/larvae and 4409 fMole/larvae	
O=C(O)C(F)(F)C(F)(F)C(F)(F)C(F)(F)C(F)(F)F [PFHxA, Perfluorohexanoic acid]		least bioaccumulative	0.46 L/kg	0.18 L/kg	0.24 L/kg	4970 ± 4400 ng/g	3280 ± 560 ng/g	8770 ± 4310 ng/g	643.192 fMole/larvae and 1721.28 fMole/larvae and 198.739 fMole/larvae and 224.57 fMole/larvae	344.178 fMole/larvae and 504.145 fMole/larvae and 437.515 fMole/larvae and 553.638 fMole/larvae	1323.26 fMole/larvae and 776.14 fMole/larvae and 638.759 fMole/larvae and 2174.95 fMole/larvae	
O=S(=O)(O)C(F)(F)C(F)(F)C(F)(F)C(F)(F)C(F)(F)C(F)(F)F [PFHxS, Perfluorohexanesulfonic acid]			8.01 L/kg	9.30 L/kg		129000 ± 31500 ng/g	261000 ± 57200 ng/g		1.35E+04 fMole/larvae and 1.76E+04 fMole/larvae and 8.93E+03 fMole/larvae and 1.16E+04 fMole/larvae	2.76E+04 fMole/larvae and 3.50E+04 fMole/larvae and 2.15E+04 fMole/larvae and 2.07E+04 fMole/larvae		BCFdry (nominal 14.0 μM, 0.4% DMSO): 11.82 L/kg; concentration at 6 dpf (nominal 14.0 μM daily 0–5 dpf, 0.4% DMSO): 107000 ± 50100 ng/g; Dil Corrected Reported Conc. (fMole/larvae), measured tissue concentration (exposure Concentration 14 µM): 8.83E+03 fMole/larvae and 1.94E+04 fMole/larvae and 6.95E+03 fMole/larvae and 7.88E+03 fMole/larvae
O=C(O)C(F)(F)C(F)(F)C(F)(F)C(F)(F)C(F)(F)C(F)(F)C(F)(F)F [PFOA, Perfluoro-n-octanoic acid]	detectable levels		11.68 L/kg	6.52 L/kg	5.17 L/kg	116000 ± 25200 ng/g	124000 ± 29900 ng/g	171000 ± 41100 ng/g	16735.5 fMole/larvae and 10378.2 fMole/larvae and 12074.8 fMole/larvae and 10012 fMole/larvae	10919.7 fMole/larvae and 9223.5 fMole/larvae and 16062.6 fMole/larvae and 16554.8 fMole/larvae	21852.9 fMole/larvae and 22967.7 fMole/larvae and 14850.1 fMole/larvae and 12804.3 fMole/larvae	
O=S(=O)(O)C(F)(F)C(F)(F)C(F)(F)C(F)(F)C(F)(F)C(F)(F)C(F)(F)C(F)(F)F [PFOS, Perfluorooctanesulfonic acid]		most bioaccumulative										BCFdry (nominal 1.0 μM, 0.4% DMSO): 1,374.89 L/kg; BCFdry (nominal 1.8 μM, 0.4% DMSO): 1,348.46 L/kg; BCFdry (nominal 3.1 μM, 0.4% DMSO): 684.03 L/kg; concentration at 6 dpf (nominal 1.0 μM daily 0–5 dpf, 0.4% DMSO): 220000 ± 109000 ng/g; concentration at 6 dpf (nominal 1.8 μM daily 0–5 dpf, 0.4% DMSO): 422000 ± 183000 ng/g; concentration at 6 dpf (nominal 3.1 μM daily 0–5 dpf, 0.4% DMSO): 678000 ± 53500 ng/g; Dil Corrected Reported Conc. (fMole/larvae), measured tissue concentration (exposure Concentration 0.986 µM): 29113.1 fMole/larvae and 7862.61 fMole/larvae and 11812.2 fMole/larvae and 28665.6 fMole/larvae; Dil Corrected Reported Conc. (fMole/larvae), measured tissue concentration (exposure Concentration 1.76 µM): 24142 fMole/larvae and 18963.9 fMole/larvae and 47666.3 fMole/larvae and 57759 fMole/larvae; Dil Corrected Reported Conc. (fMole/larvae), measured tissue concentration (exposure Concentration 3.144 µM): 57262.1 fMole/larvae and 67321.8 fMole/larvae and 54771.6 fMole/larvae and 59188.7 fMole/larvae
